According to patent publication US9233983B2, “Substituted hetero-bicyclic compounds, compositions and medicinal applications thereof” (ADVINUS THERAPEUTICS LIMITED, priority 2012, dated 2016):

These molecules were tested against human Bruton's Tyrosine Kinase (Btk) (Homo sapiens (Human), UniProt Q06187) (assay: Recombinant Human Bruton's Tyrosine Kinase (Btk) Inhibition Assay (HTRF KinEASE-TK)). Details: 20 ng/ml rhBtk, 77 μM ATP (KM), 1 μM TK-Biotin substrate, 90 min; read-out: hBTK IC50.
Chain of human Bruton's Tyrosine Kinase (Btk) (Q06187 whole entry): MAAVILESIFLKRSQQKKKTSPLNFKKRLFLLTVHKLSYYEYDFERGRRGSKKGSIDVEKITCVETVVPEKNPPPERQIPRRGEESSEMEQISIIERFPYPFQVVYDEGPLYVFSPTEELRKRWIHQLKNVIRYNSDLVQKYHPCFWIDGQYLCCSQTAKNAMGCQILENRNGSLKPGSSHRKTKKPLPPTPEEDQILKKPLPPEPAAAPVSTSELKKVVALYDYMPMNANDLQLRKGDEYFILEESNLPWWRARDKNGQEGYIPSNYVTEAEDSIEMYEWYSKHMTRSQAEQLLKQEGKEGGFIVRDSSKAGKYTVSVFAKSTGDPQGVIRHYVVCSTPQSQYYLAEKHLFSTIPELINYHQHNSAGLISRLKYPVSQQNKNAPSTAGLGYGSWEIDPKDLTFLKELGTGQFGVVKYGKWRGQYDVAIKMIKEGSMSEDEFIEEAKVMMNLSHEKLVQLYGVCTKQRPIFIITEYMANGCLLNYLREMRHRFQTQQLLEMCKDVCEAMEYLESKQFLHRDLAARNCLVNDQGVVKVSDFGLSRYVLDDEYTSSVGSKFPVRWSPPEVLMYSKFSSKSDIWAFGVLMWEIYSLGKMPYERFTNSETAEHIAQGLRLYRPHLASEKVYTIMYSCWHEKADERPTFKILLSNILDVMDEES
Format: biochemical
Molecule `COC1CCN(C(=O)c2ccc(-c3cc4c(-c5cccc(N6CCOc7cc(C8CC8)ccc7C6=O)c5C)ncnc4[nH]3)cc2)CC1` [Example K-10, 8-cyclopropyl-4-[3-[6-[4-(4-methoxypiperidine-1-carbonyl)phenyl]-7H-pyrrolo[2,3-d]pyrimidin-4-yl]-2-methyl-phenyl]-2,3-dihydro-1,4-benzoxazepin-5-one] has an IC50 of 233 nM. `COC1CN(C(=O)c2ccc(-c3cc4c(-c5cccc(N6CCOc7cc(C8CC8)ccc7C6=O)c5C)ncnc4[nH]3)cc2)C1` [Example K-11, 8-cyclopropyl-4-[3-[6-[4-(3-methoxyazetidine-1-carbonyl)phenyl]-7H-pyrrolo[2,3-d]pyrimidin-4-yl]-2-methyl-phenyl]-2,3-dihydro-1,4-benzoxazepin-5-one] showed an IC50 of 162 nM. With `Cc1c(-c2ncnc3[nH]c(-c4ccc(C(=O)N5CCCC5C(=O)O)cc4)cc23)cccc1N1CCOc2cc(C3CC3)ccc2C1=O` (stereo not shown) [Example K-12, 1-[4-[4-[3-(8-cyclopropyl-5-oxo-2,3-dihydro-1,4-benzoxazepin-4-yl)-2-methyl-phenyl]-7H-pyrrolo[2,3-d]pyrimidin-6-yl]benzoyl]pyrrolidine-2-carboxylic acid] the IC50 was 114 nM. `Cc1c(-c2ncnc3[nH]c(-c4ccc(C(=O)N5CCCC(C(=O)O)C5)cc4)cc23)cccc1N1CCOc2cc(C3CC3)ccc2C1=O` (stereo not shown) [Example K-13, 1-[4-[4-[3-(8-cyclopropyl-5-oxo-2,3-dihydro-1,4-benzoxazepin-4-yl)-2-methyl-phenyl]-7H-pyrrolo[2,3-d]pyrimidin-6-yl]benzoyl]piperidine-3-carboxylic acid] gave an IC50 of 133 nM. For `Cc1c(-c2ncnc3[nH]c(-c4ccc(C(=O)N5CCC(C(=O)O)CC5)cc4)cc23)cccc1N1CCOc2cc(C3CC3)ccc2C1=O` [Example K-14, 1-[4-[4-[3-(8-cyclopropyl-5-oxo-2,3-dihydro-1,4-benzoxazepin-4-yl)-2-methyl-phenyl]-7H-pyrrolo[2,3-d]pyrimidin-6-yl]benzoyl]piperidine-4-carboxylic acid], the IC50 was greater than 1000 nM. With `Cc1c(-c2ncnc3[nH]c(-c4ccc(C(=O)N5CCOCC5)cc4)cc23)cccc1N1CCc2cc(C3CC3)ccc2C1=O` [Example K-15, 6-cyclopropyl-2-[2-methyl-3-[6-[4-(morpholine-4-carbonyl)phenyl]-7H-pyrrolo[2,3-d]pyrimidin-4-yl]phenyl]-3,4-dihydroisoquinolin-1-one] the IC50 was 130 nM. `Cc1c(-c2ncnc3[nH]c(-c4ccc(C(=O)N5CC(O)C5)cc4)cc23)cccc1N1CCc2cc(C3CC3)ccc2C1=O` [Example K-17, 6-cyclopropyl-2-[3-[6-[4-(3-hydroxyazetidine-1-carbonyl)phenyl]-7H-pyrrolo[2,3-d]pyrimidin-4-yl]-2-methyl-phenyl]-3,4-dihydroisoquinolin-1-one] was tested, and the IC50 was 41 nM. Molecule `Cc1c(-c2ncnc3[nH]c(-c4ccc(C(=O)N5CCN(C)CC5)cc4)cc23)cccc1N1CCc2cc(C3CC3)ccc2C1=O` [Example K-18, 6-cyclopropyl-2-[2-methyl-3-[6-[4-(4-methylpiperazine-1-carbonyl)phenyl]-7H-pyrrolo[2,3-d]pyrimidin-4-yl]phenyl]-3,4-dihydroisoquinolin-1-one] has an IC50 of 208 nM. `Cc1c(-c2ncnc3[nH]c(-c4ccc(C(=O)N5CCN(C)CC5)cc4)cc23)cccc1N1CCc2cc(C3CC3)ccc2C1=O` [Example K-21, 6-cyclopropyl-2-[2-methyl-3-[6-[4-(4-methylpiperazine-1-carbonyl)phenyl]-7H-pyrrolo[2,3-d]pyrimidin-4-yl]phenyl]-3,4-dihydroisoquinolin-1-one] showed an IC50 greater than 1000 nM. `CC1(O)CN(C(=O)c2ccc(-c3cc4c(-c5cccc(N6CCOc7cc(C8CC8)cc(F)c7C6=O)c5CO)ccnc4[nH]3)nc2)C1` [Example L-4, 8-cyclopropyl-6-fluoro-4-[2-(hydroxymethyl)-3-[2-[5-(3-hydroxy-3-methyl-azetidine-1-carbonyl)-2-pyridyl]-1H-pyrrolo[2,3-b]pyridin-4-yl]phenyl]-2,3-dihydro-1,4-benzoxazepin-5-one] was tested, and the IC50 was 43 nM. Work on `Cc1c(-c2ncnc3[nH]c(-c4ccccc4)cc23)cccc1N1CCOc2cc(C3CC3)ccc2C1=O` [Example M-1, 8-cyclopropyl-4-[2-methyl-3-(6-phenyl-7H-pyrrolo[2,3-d]pyrimidin-4-yl)phenyl]-2,3-dihydro-1,4-benzoxazepin-5-one] yielded an IC50 greater than 1000 nM. In the case of `Cc1c(-c2ncnc3[nH]c(-c4ccccc4)cc23)cccc1N1CCc2cc(C3CC3)ccc2C1=O` [Example M-2, 6-cyclopropyl-2-[2-methyl-3-(6-phenyl-7H-pyrrolo[2,3-d]pyrimidin-4-yl)phenyl]-3,4-dihydroisoquinolin-1-one], the IC50 is reported as greater than 1000 nM. In the case of `Cc1c(-c2ncnc3[nH]c(-c4ccc(N5CCOCC5)cc4)cc23)cccc1N1CCOc2cc(C3CC3)ccc2C1=O` [Example M-3, 8-cyclopropyl-4-[2-methyl-3-[6-(4-morpholinophenyl)-7H-pyrrolo[2,3-d]pyrimidin-4-yl]phenyl]-2,3-dihydro-1,4-benzoxazepin-5-one], the IC50 is reported as greater than 1000 nM. In the case of `Cc1c(-c2nc(N)nc3[nH]c(-c4ccc(N5CCOCC5)nc4)cc23)cccc1N1CCOc2cc(C3CC3)ccc2C1=O` [Example N-2, 4-[3-[2-amino-6-(6-morpholino-3-pyridyl)-7H-pyrrolo[2,3-d]pyrimidin-4-yl]-2-methyl-phenyl]-8-cyclopropyl-2,3-dihydro-1,4-benzoxazepin-5-one], the IC50 is reported as 181 nM. `Cc1c(-c2ncnc3[nH]c(C4=CCN(CCCO)CC4)cc23)cccc1N1CCOc2cc(C3CC3)ccc2C1=O` [Example P-1, 8-cyclopropyl-4-[3-[6-[1-(3-hydroxypropyl)-3,6-dihydro-2H-pyridin-4-yl]-7H-pyrrolo[2,3-d]pyrimidin-4-yl]-2-methyl-phenyl]-2,3-dihydro-1,4-benzoxazepin-5-one] gave an IC50 of 272 nM. With `Cc1c(-c2ncnc3[nH]c(C4=CCN(CCO)CC4)cc23)cccc1N1CCOc2cc(C3CC3)ccc2C1=O` [Example P-2, 8-cyclopropyl-4-[3-[6-[1-(2-hydroxyethyl)-3,6-dihydro-2H-pyridin-4-yl]-7H-pyrrolo[2,3-d]pyrimidin-4-yl]-2-methyl-phenyl]-2,3-dihydro-1,4-benzoxazepin-5-one] the IC50 was 611 nM. `Cc1c(-c2ncnc3[nH]c(C4CCN(CCCO)CC4)cc23)cccc1N1CCOc2cc(C3CC3)ccc2C1=O` [Example P-3, 8-cyclopropyl-4-[3-[6-[1-(3-hydroxypropyl)-4-piperidyl]-7H-pyrrolo[2,3-d]pyrimidin-4-yl]-2-methyl-phenyl]-2,3-dihydro-1,4-benzoxazepin-5-one] showed an IC50 greater than 1000 nM. Work on `Cc1c(-c2ncnc3[nH]c(C4=CCCNC4)cc23)cccc1N1CCOc2cc(C3CC3)ccc2C1=O` [Example P-4, 8-cyclopropyl-4-[2-methyl-3-[6-(1,2,3,6-tetrahydropyridin-5-yl)-7H-pyrrolo[2,3-d]pyrimidin-4-yl]phenyl]-2,3-dihydro-1,4-benzoxazepin-5-one] yielded an IC50 greater than 1000 nM. `CN1CCN(Cc2ccc(-c3cc4c(-c5cccc(N6CCOc7cc(C8CC8)ccc7C6=O)c5)c(C#N)cnc4[nH]3)cc2)CC1` [Example P-6, 4-[3-(8-cyclopropyl-5-oxo-2,3-dihydro-1,4-benzoxazepin-4-yl)phenyl]-2-[4-[(4-methylpiperazin-1-yl)methyl]phenyl]-1H-pyrrolo[2,3-b]pyridine-5-carbonitrile] showed an IC50 of 82 nM.
